Legend:
[1] = tested on: total cholesterol concentration in blood plasma; assay: Total cholesterol concentration in blood plasma of rats after repeated oral administration (Example 1); format: in vivo, Male Sprague Dawley rats; details: oral once a day, pitavastatin 10 mg/kg, compound A 0.3 mg/kg, N = 8
Method: (§1) Male Sprague Dawley rats (Crl: CD (SD), Japan Charles River Co. Ltd., 6 weeks old) were taken for the test. Throughout the test period, the rats were bred in a breeding room maintained with a light/dark cycle (bright period under room light: 7 A.M. to 7 P.M.) at a temperature of 23±3° C. and a humidity of 55±15%, and were allowed to freely take solid feedstuff (CE-2; Oriental Yeast Co. Ltd.) and tap water. Compound A and pitavastatin were each suspended in a 0.5 mass % aqueous solution of methylcellulose (Metolose (registered trademark) SM-400, Shin-Etsu Chemical Co. Ltd.), and the amount of administration of the aqueous solution was adjusted to be 2 mL/kg. The suspension was stored in a shading bottle under refrigeration (4° C.), and the preparation was performed once every 7 days. Additionally, when the pitavastatin is a hydrate as in the case of the present Example, the water content of a standard product can be measured by a conventional method known to those ordinarily skilled in the art, and the amount required in the production of drug based on the water content of the “pitavastatin calcium hydrate” used in the present Example can be calculated. […] The two medicaments were orally administered repeatedly for 14 days at a rate of once a day (in the morning). The control group of the first group was orally administered with 2 mL/kg of a 0.5 mass % aqueous solution of methylcellulose. […] Furthermore, the LDL-cholesterol concentration in blood plasma was measured using high performance liquid chromatography according to the method of Usui et al. (Lipid Res., 43:805-814, 2002). The results were shown in the form of average value±standard error. A multiple group comparison between the control group and the drug administered groups was conducted using Dunnett' s multiple comparison test. A risk rate of less than 5% was determined to have a significant difference.

[2] = tested on: LDL-cholesterol concentration in blood plasma; assay: LDL-cholesterol concentration in blood plasma of rats after repeated oral administration (Example 1); format: in vivo, Male Sprague Dawley rats; details: one week after the administration, oral once a day, pitavastatin 10 mg/kg, compound A 0.3 mg/kg, N = 8; for LDL-cholesterol concentration in blood plasma, Average value ± Standard error: in mg/dL
Method: as §1

[3] = tested on: triglyceride concentration in blood plasma; assay: Triglyceride concentration in blood plasma of rats after repeated oral administration (Example 1); format: in vivo, Male Sprague Dawley rats; details: two weeks after the initiation of administration (14th day), oral once a day, pitavastatin 10 mg/kg, compound A 0.3 mg/kg, N = 8; for triglyceride concentration in blood plasma, Average value ± Standard error: in mg/dL
Method: as §1

[4] = tested on: triglyceride concentration in blood plasma; assay: Plasma triglyceride concentration in Zucker fatty rats after repeated oral administration (Example 2); format: in vivo, Male Zucker fatty rats; details: compound A 0.1 mg/kg, pitavastatin 10 mg/kg, fenofibrate 100 mg/kg; for triglyceride concentration in blood plasma, Average value ± Standard error / triglyceride concentration in blood plasma, Relative value compared to control group: two weeks (14th day), oral once a day, N = 7-8; for rate of decrease of the triglyceride concentration in blood plasma: two weeks, vs control group
Method: The effect of administration of compound A and pitavastatin on the plasma triglyceride concentration in this animal model was determined according to the following methods.
Male Zucker fatty rats (Crlj: ZUC-Lepr^fa, Japan Charles River Co. Ltd., 10 weeks old) were taken for the test.
Throughout the test period, the rats were bred in a breeding room maintained with a light/dark cycle (bright period under room light: 7 A.M. to 7 P.M.) at a temperature of 23±3° C. and a humidity of 55±15%, and were allowed to freely take solid feedstuff (CE-2; Oriental Yeast Co. Ltd.) and tap water.
Compound A, pitavastatin and fenofibrate (Sigma-Aldrich Co. Ltd.) were each suspended in a 0.5 mass % aqueous solution of methylcellulose (Metolose (registered trademark) SM-400, Shin-Etsu Chemical Co. Ltd.), and the amount of administration of the aqueous solution was adjusted to be 2 mL/kg. The suspension was stored in a shading bottle under refrigeration (4° C.), and the preparation was carried out once every 7 days. Additionally, when the pitavastatin was a hydrate as in the case of the present Example, the water content of a standard product was measured by a conventional method known to those ordinarily skilled in the art, and the amount required in the production of drug based on the water content of the “pitavastatin calcium hydrate” used in the present Example was calculated.
In order to average the total cholesterol concentration and the triglyceride concentration in blood plasma, the rats were divided into the following six groups (eight animals each group), that is, a control group as a first group, a group administered with compound A only (0.1 mg/kg) as a second group, a group administered with pitavastatin only (10 mg/kg) as a third group, a group administered with fenofibrate only (100 mg/kg) as a fourth group, a group administered with pitavastatin (10 mg/kg) and compound A (0.1 mg/kg) in combination as a fifth group, and a group administered with pitavastatin (10 mg/kg) and fenofibrate (100 mg/kg) in combination as a sixth group.
The two medicaments were orally administered repeatedly for 14 days at a rate of once a day (in the morning). The control group of the first group was orally administered with 2 mL/kg of a 0.5 mass % aqueous solution of methylcellulose.
On the 14th day after the initiation of administration, the rats were fasted for 4 hours from administration, then blood was collected, and the triglyceride concentration in blood plasma was measured by an enzymatic method.
A multiple group comparison between the control group and the drug administered groups was conducted using Dunnett's multiple comparison test. A risk rate of less than 5% was determined to have a significant difference.

blood glucose level = assay: Oral glucose tolerance test in Zucker fatty rats (Example 3); format: in vivo, Male Zucker fatty rats; details: 28 days oral once a day, compound A 0.3 mg/kg, pitavastatin 3 mg/kg, fenofibrate 100 mg/kg
Method: As a method for examining diabetes mellitus, an oral glucose tolerance test, that is, a method in which a test subject fasted overnight is orally fed with a glucose solution, and blood is collected before and after the feeding, to examine the degree of increase in the blood glucose level, is widely performed. Thus, the Zucker fatty rat was used and administered with medicaments, and then an oral glucose tolerance test was performed to investigate the influence of the medicament of the present invention exerted on the blood glucose level. Male Zucker fatty rats (Crlj: ZUC-Lepr^fa, Japan Charles River Co. Ltd., 9 weeks old) were taken for the test. […] Additionally, when the pitavastatin was a hydrate as in the case of the present Example, the water content of a standard product was measured by a conventional method known to those ordinarily skilled in the art, and the amount required in the production of drug based on the water content of the “pitavastatin calcium hydrate” used in the present Example was calculated. […] The blood glucose level was measured by an enzymatic method. […] A risk rate of less than 5% was determined to have a significant difference.

[5] = tested on: total plasma cholesterol concentration; details: results of clinical trials; cited from earlier work
[6] = one week after administration (7th day), 4 h fasted
[7] = two weeks after the initiation of administration (14th day)
[8] = two weeks after the initiation of administration (14th day), in mg/dL

SMILES | total cholesterol concentration in blood plasma, Average value ± Standard error [1, 6] [mg/dL] | total cholesterol concentration in blood plasma, Relative value compared to control group ([1]; one week after administration (7th day)) | total cholesterol concentration in blood plasma, Relative value compared to control group ([1]; one week after administration (7th day), listed as compound A) | total cholesterol concentration in blood plasma, Relative value compared to control group [1, 7] | total cholesterol concentration in blood plasma, Average value ± Standard error [1, 8] | LDL-cholesterol concentration in blood plasma, Relative value compared to control group [2] | LDL-cholesterol concentration in blood plasma, Average value ± Standard error [2] | triglyceride concentration in blood plasma, Relative value compared to control group [3] | triglyceride concentration in blood plasma, Average value ± Standard error [3] | triglyceride concentration in blood plasma, Relative value compared to control group ([3]; listed as compound A) | triglyceride concentration in blood plasma, Average value ± Standard error [4] [mg/dL] | triglyceride concentration in blood plasma, Relative value compared to control group [4] | rate of decrease of the triglyceride concentration in blood plasma [4] [%] | change in blood glucose level over time after glucose loading (FIG. 3A) (blood glucose level) | total cholesterol concentration in blood plasma, Relative value compared to control group ([1]; one week after administration (7th day), calcium hydrate) | total cholesterol concentration in blood plasma, Relative value compared to control group ([1]; one week after administration (7th day), listed as pitavastatin, calcium hydrate) | triglyceride concentration in blood plasma, Relative value compared to control group ([3]; calcium hydrate) | rate of improvement in the total plasma cholesterol concentration [5] [%]
CC[C@@H](Oc1cccc(CN(CCCOc2ccc(OC)cc2)c2nc3ccccc3o2)c1)C(=O)O [Compound A, (R)-2-[3-[[N-(Benzoxazol-2-yl)-N-3-(4-methoxyphenoxy)propyl]aminomethyl]phenoxy]butyric acid] | 48.3 ± 1.8 | 0.792 | 0.903 | 0.752 | 43.4 ± 1.9 | 0.698 | 8.1 ± 0.4 | 0.806 | 33.3 ± 2.2 | 0.942 | 518.0 ± 106.0 | 0.798 | 20 | rapid increases in the blood glucose level | – | – | – | –
CC(C)OC(=O)C(C)(C)Oc1ccc(C(=O)c2ccc(Cl)cc2)cc1 [Fenofibrate, fenofibrate] | – | – | – | – | – | – | – | – | – | – | 546.3 ± 58.9 | 0.841 | 16 | – | – | – | – | –
O=C(O)C[C@H](O)C[C@H](O)/C=C/c1c(C2CC2)nc2ccccc2c1-c1ccc(F)cc1 [Pitavastatin, pitavastatin calcium hydrate] | 55.1 ± 5.7 | – | – | 0.997 | 57.5 ± 6.6 | 0.974 | 11.3 ± 1.8 | 0.942 | 38.9 ± 3.1 | – | 612.2 ± 61.0 | 0.943 | 6 | rapid increases in the blood glucose level | 0.903 | 0.792 | 0.806 | 93.9
